test system: HuH-7 replicon cells 5–15 and 9–13 (HCV replication); test: Inhibition of viral replication in HuH-7 replicon cells (HCV RNA / GAPDH RNA by multiplex RT-PCR); type: cell-based; settings: Hepatitis C virus, 72 h; inhibiting 50% of replication; HuH-7 replicon cells, 3 days; read-out: IC50
Method: Compounds were evaluated for inhibition of viral replication according to published procedures (Bartenschlager, R., et. al., Science, 1999, 285, 110) with modifications as follows.
HuH-7 replicon cells 5–15 and 9–13 were cultured in Dulbecco's minimal essential medium (DMEM) containing high glucose and supplemented with 10% fetal bovine serum (FBS), L-glutamine (2 mM), non-essential amino acids (1×), Penicillin (100 IU/mL)/Streptomycin (100 μg/mL) and G418 (Geneticin, 750 μg/mL). Unless otherwise specified, all media components were obtained from Invitrogen. Replicon cell line stocks were maintained as sub-confluent monolayers by passaging every Monday (1:6 split) and Thursday (1:10 split) and incubated at 37° C. with 5% CO2. Tissue culture plates (96-well white clear bottom plates, Corning #3610) were seeded at 7×10^3 cells/well and incubated for 24 hours prior to addition of the compounds.
Compounds in dry powder form were diluted in DMSO (30 mM stock). Serial dilutions of each Compound in DMSO (10 mM–0.1 mM) were performed in a 96-well polypropylene plate using a microtiter format. Culture media (200 μl) was added to the corresponding wells of a sterile 96-well round bottom plate. Diluted compound (2 μl) was added to the corresponding wells of the medial plate (final compound concentrations: 100 μM–1 μM). Culture media was removed from the corresponding wells of the 96-well plate containing the replicon cells and 150 μl diluted compound added. Media containing 1% DMSO and a serially diluted IFN were included on each plate. The cultures were incubated at 37° C. with 5% CO2 for 3 days. Cultures were observed visually for cytotoxicity or compound precipitation prior to RNA extraction described below.
Total cellular RNA was extracted by spin column technology (RNeasy 96, Qiagen) using the vacuum methodology according to the manufacturer's protocol. In brief, culture media was removed and 100 μl RLT lysis buffer containing 0.14M β-mercaptoethanol (β-ME) was added to each well. The plate was kept flat on the laboratory bench and shaken vigorously to lyse the cells. An equal volume of 70% ETOH was mixed with the lysate and added to the corresponding columns of the RNeasy 96-well plate. Vacuum was applied to draw the lysate through the filters. After ventilating the plate, buffer RW1 (1 mL) was drawn through each column. The waste tray was emptied and the filters washed twice with buffer RPE (1 mL/wash). After ventilating the tray, the RNeasy plate was removed and the bottom of the plate struck several times on a stack of paper towels to remove excess wash buffer. The waste tray was removed from the vacuum apparatus and the RNeasy 96-well plate dried by applying vacuum for 10 minutes. Total cellular RNA was eluted from the columns with two washes of 60 μl RNase-free water.
Relative quantitative multiplex RT-PCR was performed using TaqMan (TM) EZ RT Core Reagent kit (Perkin Elmer) according to the manufacturer's protocol (PE Applied Biosystems User Bulletin #2). Primer 061 (NT 61–82) and 139 (NT 139–158) amplifying a short region in the 5′ untranslated region of the HCV genome were utilized at 300 nM final concentrations. Probe #3 (NT 97–119) labeled with FAM reporter dye was utilized at 200 nM final concentration. Pre-developed human GAPDH primers and probe labeled with VIC reporter dye were obtained from PE Applied Biosystems (# 4310884E) and used according to the manufacturer's protocol. TM RT-PCR master mix was prepared containing the above primers/probe for both target RNA. Total cellular RNA (2 μl) was added to the reaction tubes of a 96-well optical plate that corresponded to the wells of the replicon culture plate. The final volume of each reaction was 50 μl. A standard curve was prepared from ten-fold serial dilutions of total cellular RNA extracated from 10^6 replicon cells and eluted in 30 μl RNase-free water. […]

Compound | IC50 [µM]
O=C(Cc1ccncc1)N/N=C/c1ccccc1OS(=O)(=O)c1ccc(C(F)(F)F)cc1 [Compound 1, 2-{(E)-[2-(2-pyridin-4-ylacetyl)-hydrazono]methyl}phenyl 4-(trifluoromethyl)benzenesulfonate] | 5 to 50
O=C(CCc1ccccc1)N/N=C/c1ccccc1OS(=O)(=O)c1ccc(C(F)(F)F)cc1 [Compound 2, 2-{(E)-[2-(3-phenylpropanoyl)-hydrazono]methyl}phenyl 4-(trifluoromethyl)benzenesulfonate] | < 5
O=C(Cc1c[nH]c2ccccc12)N/N=C/c1ccccc1OS(=O)(=O)c1ccc(C(F)(F)F)cc1 [Compound 3, 2-((E)-{2-[2-(1H-indol-3-yl)-acetyl]hydrazono}methyl)phenyl 4-(trifluoromethyl)benzene-sulfonate] | < 5
O=C(Cc1cccs1)N/N=C/c1ccccc1OS(=O)(=O)c1ccc(C(F)(F)F)cc1 [Compound 4, 2-{(E)-[2-(2-thien-2-ylacetyl)-hydrazono]methyl}phenyl 4-(trifluoromethyl)benzenesulfonate] | < 5
O=C(Cc1c[nH]cn1)N/N=C/c1ccccc1OS(=O)(=O)c1ccc(C(F)(F)F)cc1 [Compound 5, 2-((E)-{2-[2-(1H-imidazol-4-yl)acetyl]hydrazono}methyl)phenyl 4-(trifluoromethyl)benzenesulfonate] | < 5
O=C(Cc1cccnc1)N/N=C/c1ccccc1OS(=O)(=O)c1ccc(C(F)(F)F)cc1 [Compound 6, 2-{(E)-[2-(2-pyridin-3-ylacetyl)hydrazono]methyl}phenyl 4-(trifluoromethyl)benzenesulfonate] | < 5
O=C(Cc1ccc(Cl)cc1)N/N=C/c1ccccc1OS(=O)(=O)c1ccc(C(F)(F)F)cc1 [Compound 7, 2-((E)-{2-[2-(4-chlorophenyl)acetyl]hydrazono}methyl)-phenyl 4-(trifluoromethyl)benzenesulfonate] | < 5
O=C(Cc1ccc(F)cc1)N/N=C/c1ccccc1OS(=O)(=O)c1ccc(C(F)(F)F)cc1 [Compound 8, 2-((E)-{2-[2-(4-fluorophenyl)acetyl]hydrazono}methyl)-phenyl 4-(trifluoromethyl)benzenesulfonate] | < 5
O=C(Cc1ccc(F)c(Cl)c1)N/N=C/c1ccccc1OS(=O)(=O)c1ccc(C(F)(F)F)cc1 [Compound 9, 2-((E)-{2-[2-(3-chloro-4-fluorophenyl)acetyl]hydrazono}methyl)-phenyl 4-(trifluoromethyl)benzenesulfonate] | < 5
O=C(Cc1ccc(F)cc1Cl)N/N=C/c1ccccc1OS(=O)(=O)c1ccc(C(F)(F)F)cc1 [Compound 10, 2-((E)-{2-[2-(2-chloro-4-fluorophenyl)acetyl]hydrazono}methyl)-phenyl 4-(trifluoromethyl)benzenesulfonate] | < 5
CN(C)c1ccc(CC(=O)N/N=C/c2ccccc2OS(=O)(=O)c2ccc(C(F)(F)F)cc2)cc1 [Compound 11, 2-[(E)-(2-{2-[4-(dimethylamino)phenyl]acetyl}hydrazono)-methyl]phenyl 4-(trifluoromethyl)benzenesulfonate] | < 5
O=C(Cc1c(F)c(F)c(F)c(F)c1F)N/N=C/c1ccccc1OS(=O)(=O)c1ccc(C(F)(F)F)cc1 [Compound 12, 2-((E)-{2-[2-(pentafluorophenyl)acetyl]hydrazono}-methyl)phenyl 4-(trifluoromethyl)benzenesulfonate] | > 50
O=C(Cc1ccc(F)c(C(F)(F)F)c1)N/N=C/c1ccccc1OS(=O)(=O)c1ccc(C(F)(F)F)cc1 [Compound 13, 2-[(E)-(2-{2-[4-fluoro-3-(trifluoromethyl)phenyl]acetyl}hydrazono)-methyl]phenyl 4-(trifluoromethyl)benzenesulfonate] | < 5
O=C(Cc1ccc(C(F)(F)F)c(F)c1)N/N=C/c1ccccc1OS(=O)(=O)c1ccc(C(F)(F)F)cc1 [Compound 14, 2-[(E)-(2-{2-[3-fluoro-4-(trifluoromethyl)phenyl]acetyl}hydrazono)-methyl]phenyl 4-(trifluoromethyl)benzenesulfonate] | < 5
COc1ccc(CC(=O)N/N=C/c2ccccc2OS(=O)(=O)c2ccc(C(F)(F)F)cc2)c(OC)c1OC [Compound 15, 2-((E)-{2-[2-(2,3,4-trimethoxyphenyl)acetyl]hydrazono}-methyl)phenyl 4-(trifluoromethyl)-benzenesulfonate] | < 5
O=C(Cc1ccc(F)c(F)c1F)N/N=C/c1ccccc1OS(=O)(=O)c1ccc(C(F)(F)F)cc1 [Compound 16, 2-((E)-{2-[2-(2,3,4-trifluorophenyl)acetyl]hydrazono}methyl)-phenyl 4-(trifluoromethyl)benzenesulfonate] | < 5
O=C(Cc1cc(F)c(F)cc1F)N/N=C/c1ccccc1OS(=O)(=O)c1ccc(C(F)(F)F)cc1 [Compound 17, 2-((E)-{2-[2-(2,4,5-trifluorophenyl)acetyl]hydrazono}methyl)-phenyl 4-(trifluoromethyl)benzenesulfonate] | < 5
O=C(Cc1cc(F)c(F)c(F)c1)N/N=C/c1ccccc1OS(=O)(=O)c1ccc(C(F)(F)F)cc1 [Compound 18, 2-((E)-{2-[2-(3,4,5-trifluorophenyl)acetyl]hydrazono}methyl)-phenyl 4-(trifluoromethyl)benzenesulfonate] | < 5
O=C(Cc1ccc(SC(F)(F)F)cc1)N/N=C/c1ccccc1OS(=O)(=O)c1ccc(C(F)(F)F)cc1 [Compound 19, 2-{(E)-[2-(2-{4-[(trifluoromethyl)thio]phenyl}acetyl)hydra-zono]methyl}phenyl 4-(trifluoromethyl)benzenesulfonate] | 5 to 50
O=C(Cc1cc(F)cc(F)c1F)N/N=C/c1ccccc1OS(=O)(=O)c1ccc(C(F)(F)F)cc1 [Compound 20, 2-((E)-{2-[2-(2,3,5-trifluorophenyl)acetyl]hydrazono}methyl)-phenyl 4-(trifluoromethyl)benzenesulfonate] | < 5
O=C(Cc1cccc(OC(F)(F)F)c1)N/N=C/c1ccccc1OS(=O)(=O)c1ccc(C(F)(F)F)cc1 [Compound 21, 2-[(E)-(2-{2-[3-(trifluoromethoxy)phenyl]acetyl}hydrazono)-methyl]phenyl 4-(trifluoromethyl)benzenesulfonate] | < 5
O=C(Cc1c(Cl)ccc(Cl)c1Cl)N/N=C/c1ccccc1OS(=O)(=O)c1ccc(C(F)(F)F)cc1 [Compound 22, 2-((E)-{2-[2-(2,3,6-trichlorophenyl)acetyl]hydrazono}methyl)-phenyl 4-(trifluoromethyl)benzenesulfonate] | > 50
O=C(Cc1cc(F)cc(C(F)(F)F)c1)N/N=C/c1ccccc1OS(=O)(=O)c1ccc(C(F)(F)F)cc1 [Compound 23, 2-[(E)-(2-{2-[3-fluoro-5-(trifluoromethyl)phenyl]acetyl}hydrazono)-methyl]phenyl 4-(trifluoromethyl)benzenesulfonate] | < 5
COc1cccc(CC(=O)N/N=C/c2ccccc2OS(=O)(=O)c2ccc(C(F)(F)F)cc2)c1OC [Compound 24, 2-((E)-{2-[2-(2,3-dimethoxyphenyl)acetyl]hydrazono}methyl)-phenyl 4-(trifluoromethyl)benzenesulfonate] | < 5
O=C(Cc1ccccc1SC(F)(F)F)N/N=C/c1ccccc1OS(=O)(=O)c1ccc(C(F)(F)F)cc1 [Compound 25, 2-{(E)-[2-(2-{2-[(trifluoromethyl)thio]-phenyl}acetyl)hydrazono]methyl}phenyl 4-(trifluoromethyl)benzenesulfonate] | < 5
CSc1ccc(CC(=O)N/N=C/c2ccccc2OS(=O)(=O)c2ccc(C(F)(F)F)cc2)cc1 [Compound 26, 2-[(E)-(2-{2-[4-(methylthio)phenyl]acetyl}hydrazono)methyl]-phenyl 4-(trifluoromethyl)benzenesulfonate] | < 5

From patent publication US7026339B2, “Inhibitors of HCV NS5B polymerase” (priority 2003, dated 2006)
